In test [1] the target is Metabotropic glutamate receptor 1 (Homo sapiens, UniProt Q13255). As to the kind of experiment: Compound was tested for its […] activity against Ser165 and Thr188 (Metabotropic glutamate receptor 1) receptor. It is filed as functional.
Test [2] addresses Metabotropic glutamate receptor 5 (Homo sapiens, UniProt P41594). As to the kind of experiment: Compound was tested for it's […] activity against Ser152 and Thr175 (Metabotropic glutamate receptor 5). It is filed as functional.

From ChEMBL document CHEMBL1132550, “Modeling of amino-terminal domains of group I metabotropic glutamate receptors: structural motifs affecting ligand selectivity” (J Med Chem, 1999) come the findings set out here.

Each structure is given as a SMILES string.

Chain of Metabotropic glutamate receptor 1 (Q13255 whole entry): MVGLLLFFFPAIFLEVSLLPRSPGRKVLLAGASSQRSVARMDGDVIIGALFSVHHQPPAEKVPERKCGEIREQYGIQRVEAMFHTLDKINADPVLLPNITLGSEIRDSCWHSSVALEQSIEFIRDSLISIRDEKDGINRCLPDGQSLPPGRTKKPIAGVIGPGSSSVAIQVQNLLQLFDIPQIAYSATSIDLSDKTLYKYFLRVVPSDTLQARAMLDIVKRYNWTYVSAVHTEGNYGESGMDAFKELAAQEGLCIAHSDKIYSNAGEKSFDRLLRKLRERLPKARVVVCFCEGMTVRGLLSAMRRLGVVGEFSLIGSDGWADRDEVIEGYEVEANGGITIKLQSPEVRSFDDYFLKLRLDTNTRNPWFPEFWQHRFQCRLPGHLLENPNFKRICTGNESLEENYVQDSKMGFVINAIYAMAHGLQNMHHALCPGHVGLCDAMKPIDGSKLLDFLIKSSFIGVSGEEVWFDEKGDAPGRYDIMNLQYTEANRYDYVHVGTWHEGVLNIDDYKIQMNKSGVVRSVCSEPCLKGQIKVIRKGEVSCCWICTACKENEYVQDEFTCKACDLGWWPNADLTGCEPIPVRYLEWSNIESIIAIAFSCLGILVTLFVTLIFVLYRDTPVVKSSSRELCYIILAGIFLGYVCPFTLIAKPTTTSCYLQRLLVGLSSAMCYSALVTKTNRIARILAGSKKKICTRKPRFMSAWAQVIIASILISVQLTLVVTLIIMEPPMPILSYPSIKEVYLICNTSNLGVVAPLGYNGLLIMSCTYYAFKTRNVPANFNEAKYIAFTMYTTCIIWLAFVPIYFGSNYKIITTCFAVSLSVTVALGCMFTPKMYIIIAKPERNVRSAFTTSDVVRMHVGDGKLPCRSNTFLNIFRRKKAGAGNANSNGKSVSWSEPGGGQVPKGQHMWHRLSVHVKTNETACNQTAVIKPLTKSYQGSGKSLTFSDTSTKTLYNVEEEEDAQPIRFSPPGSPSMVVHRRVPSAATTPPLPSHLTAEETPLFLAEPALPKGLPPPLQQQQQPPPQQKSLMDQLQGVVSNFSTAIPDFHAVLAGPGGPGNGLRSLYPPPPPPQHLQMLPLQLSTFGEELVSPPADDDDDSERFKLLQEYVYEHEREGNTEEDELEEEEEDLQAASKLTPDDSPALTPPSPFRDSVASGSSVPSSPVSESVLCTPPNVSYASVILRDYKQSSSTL
Chain of Metabotropic glutamate receptor 5 (P41594 whole entry): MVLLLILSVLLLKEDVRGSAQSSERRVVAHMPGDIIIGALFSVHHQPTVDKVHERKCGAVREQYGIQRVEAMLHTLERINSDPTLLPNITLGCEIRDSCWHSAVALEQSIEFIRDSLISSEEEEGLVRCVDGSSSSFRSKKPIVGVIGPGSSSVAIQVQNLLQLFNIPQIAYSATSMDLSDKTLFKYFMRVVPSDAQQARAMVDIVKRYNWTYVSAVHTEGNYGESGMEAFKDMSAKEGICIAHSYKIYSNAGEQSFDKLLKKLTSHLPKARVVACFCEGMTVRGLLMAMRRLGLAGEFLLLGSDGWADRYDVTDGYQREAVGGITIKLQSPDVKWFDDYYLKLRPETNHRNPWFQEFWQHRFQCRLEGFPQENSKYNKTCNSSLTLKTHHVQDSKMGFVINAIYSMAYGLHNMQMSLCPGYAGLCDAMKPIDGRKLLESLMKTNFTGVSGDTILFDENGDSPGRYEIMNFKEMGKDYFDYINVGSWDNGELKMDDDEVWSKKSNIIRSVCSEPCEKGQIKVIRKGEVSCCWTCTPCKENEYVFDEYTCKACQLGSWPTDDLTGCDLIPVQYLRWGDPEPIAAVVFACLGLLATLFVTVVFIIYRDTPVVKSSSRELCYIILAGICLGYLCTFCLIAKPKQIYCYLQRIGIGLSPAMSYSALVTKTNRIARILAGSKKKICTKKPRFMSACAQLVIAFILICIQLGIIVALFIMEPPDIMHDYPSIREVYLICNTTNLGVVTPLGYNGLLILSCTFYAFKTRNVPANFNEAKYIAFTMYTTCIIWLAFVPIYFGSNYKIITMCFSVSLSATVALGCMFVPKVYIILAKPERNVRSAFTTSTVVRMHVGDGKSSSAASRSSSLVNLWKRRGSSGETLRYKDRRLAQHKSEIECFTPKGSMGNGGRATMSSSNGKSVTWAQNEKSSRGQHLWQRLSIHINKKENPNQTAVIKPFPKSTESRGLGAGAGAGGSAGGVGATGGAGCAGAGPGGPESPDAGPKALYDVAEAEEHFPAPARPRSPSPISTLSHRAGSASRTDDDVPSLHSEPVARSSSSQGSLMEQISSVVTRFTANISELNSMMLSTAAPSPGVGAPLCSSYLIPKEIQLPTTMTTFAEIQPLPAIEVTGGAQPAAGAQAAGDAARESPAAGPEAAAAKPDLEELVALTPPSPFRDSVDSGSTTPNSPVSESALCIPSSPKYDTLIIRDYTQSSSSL

Consider `N[C@H](C(=O)O)c1cc(O)cc(O)c1`, for which the response in test [1] was half-maximal at 6.6 µM (EC50).
`NC(C(=O)O)c1cc(O)ccc1Cl` (stereo not given) registered an EC50 in test [2] of 750 µM.
In the case of `Cc1ccc(O)c(/N=N/c2ccccc2)n1`, the results for the IC50 in test [2] and in test [1] were 0.37 µM and greater than 100 µM, respectively.
`NC(C(=O)O)C12CC(C(=O)O)(C1)C2` (stereo not given) showed an EC50 in test [2] of 103 µM.
As to `Cc1cc(C(=O)O)ccc1[C@H](N)C(=O)O`, the IC50 in test [2] is greater than 100 µM.
`Cc1cccc(/C=C/c2ccccc2)n1`: the IC50 was 0.29 µM in test [2] and greater than 100 µM in test [1].
As to `N[C@]1(C(=O)O)CCc2cc(C(=O)O)ccc21`, the IC50 in test [2] is greater than 1000 µM; in test [1], 214 µM.
